Assay results from US20110098442A1, “PEPTIDES AND PEPTIDE DERIVATIVES AS WELL AS PHARMACEUTICAL COMPOSITIONS CONTAINING THE SAME” (priority 2006, published 2011).
Groups on a side chain read outwards from the residue. No end group written: not given here.

Test system: mouse-adapted Dengue virus (DEN-2, strain P23085)
Assay: Dengue virus infection in mice, mortality/survival
Format: in vivo, BALB/c mice
Settings: 4.8 mg/kg/day intramuscular once a day for 5 days, starting on day 3 after infection, end of treatment period (day 10)
Experimental: A further possibility for establishing the biological effect in vivo is the reduction or complete suppression of mortality because of an infection with haemolytic viruses or bacteria. For this purpose, mice are, as described in Example 8, for instance infected with a dose of Dengue viruses, wherein 50% of the animals die within a period of 5-20 days after infection. The inventive compounds bring about a reduction of this mortality at a dose ranging from 0.001 to 500 mg/kg body weight, preferably at a dose ranging from […] body weight.
The biological effect of the compound of Example 3 was established in a model of Dengue virus infection in mice. 5-week-old male BALB/c mice were divided into 2 groups. All animals were infected subcutaneously with a mouse-adapted Dengue virus (DEN-2, strain P23085 at a dose of 1-2 LD50. 15 mice received 0.1 ml of 0.8% saline as intramuscular injection (control). The treated animals received 4.8 mg/kg/day of the agent of Example 3 as an intramuscular injection (diluted in 0.1 ml of 0.8% saline) once a day for 5 days, starting on day 3 after the virus infection.
At the end of the treatment period (day 10) the survival rates were compared.

## Gly-His-Arg-Pro-Leu-Asp-Lys-Lys-Arg-Glu-Glu-Ala-Pro-Ser-Leu-Arg-Pro-Ala-Pro-Pro-Pro-Ile-Ser-Gly-Gly-Gly-Tyr-Arg-Cys-(S-succinimido-PEG20K)-amide (GHRPLDKKREEAPSLRPAPPPISGGGYRC([succinimido-PEG 20 kDa])-NH2) [Example 3]
Infection dose 1-2 LD50
  Mortality (dead animals/animals in group): 0/10
P < 0.05 vs control
  Mortality Percentage: 0%
